In EP0828750B1, “PALLADIUM CATALYZED NUCLEOSIDE MODIFICATION METHODS USING NUCLEOPHILES AND CARBON MONOXIDE” (EC Technology LLC, priority 1995, dated 1996):

What was measured:
[1] = test system: human cytomegalovirus (CMV); assay: Plaque reduction assay using semi-solid overlay (EC50 determination); assay type: cell-based; conditions: for EC50: Human betaherpesvirus 5, 336 h, concentration required to inhibit viral cytopathogenicity by 50%, CMV plaques in HFF, agarose overlay, 14 days, drug range 100 to 0.03 µg/ml; for SI: Selectivity Index, SI = IC50/EC50
Procedure: (§1) Newborn human foreskins were obtained immediately post-circumcision and placed in minimal essential medium (MEM) supplemented with vancomycin, fungizone, penicillin and gentamycin (all present at standard concentrations) and maintained for four hours under tissue culture conditions (37°C, 5% CO2). Supplemented MEM was then removed and the foreskin material macerated. Tissue fragments were then washed exhaustively (using supplemented MEM) to remove residual erythrocyte contamination.
The erythrocyte-free cell fragments were then exposed to trypsin solution (0.25%) for 15 min with continuous stirring. Tissue fragments were then allowed to settle out of suspension and the supernatant collected and passed through sterile cheesecloth into a flask containing MEM and 10% fetal bovine serum (FBS). The cheesecloth was washed with an additional volume of MEM containing 10% FBS (The flask containing MEM and 10% FBS was maintained on ice throughout the trypsinization procedure). The trypsinization procedure was repeated using fresh trypsin solution, until no additional cell removal from tissue fragments was observed. Cells removed by this process are predominantly human foreskin fibroblasts (HFF).
Cells contained in MEM with 10% FBS were pelleted by centrifugation (≅ 1000 RPM, 4°C, 10 min), the supernatant discarded and the pelleted cells suspended in a minimal volume of MEM with 10% FBS. HFF isolates were then plated into T-25 tissue culture flasks (the number of primary culture flasks used was based on the volume of the recovered cell pellet). HFF isolates were then maintained under tissue culture conditions (37°C, 5% CO2) until confluent. Primary cultures of HFF were sequentially expanded into larger format culture flasks using standard tissue culture procedures. HFF were maintained in the presence of vancomycin and fungizone through passage four.
HFF are plated into 6-well tissue culture plates and maintained under tissue culture conditions for approximately two days prior to use. On the date of assay, experimental drug solutions are prepared as 2X concentrations in 2X MEM. Serial dilutions of experimental drug are then performed (1:5) using 2X MEM. The approximate concentration range for experimental agents being 200 to 0.06 µg/ml. Each drug or control solution was then diluted 1:1 with 0.8% agarose solution. Following dilution with agarose solution, the final experimental drug concentration range was 100 to 0.03 µg/ml, with a final agarose overlay concentration of 0.4%. Viral material (CMV) was diluted in MEM with 10% FBS to yield a concentration of virus producing 20-30 plaques per well. […]
Following incubations, HFF were stained for 4-6H with a 1.5% solution of neutral red. The neutral red/agarose/MEM mixture is aspirated and viral plaques counted using a 10X steriomicroscope. […]

[2] = test system: human foreskin fibroblasts (HFF); assay: Cytotoxicity assay (IC50 determination), crystal violet staining; assay type: cell-based; conditions: Fibroblast, 336 h, concentration required to inhibit cellular proliferation by 50%, 96-well, 14 day incubation, crystal violet absorbance 620nm
Procedure: as §1
The erythrocyte-free cell fragments were then exposed to trypsin solution (0.25%) for 15 min with continuous stirring. […]
HFF were seeded into 96-well tissue culture plates at a concentration of 2.5x10^4 cells/ml (100µl MEM with 10% FBS was used as the culture medium) and maintained under tissue culture conditions for 24H prior to experimentation. […] To the first row of each 96-well plate, 125 µl of control media or experimental drug CT1146-26 or CT1146-28 (initial concentration determined by the overall concentration range desired) was added in triplicate wells. […]
Following the incubation period, medium was removed from all wells and the cells stained with 0.1% crystal violet solution for 30 min followed by several wash cycles to remove residual stain. The crystal violet stained plates were then allowed to air dry for 24H prior to reading well absorbance values (620nm) using a Skatron plate reader. […]

EC50 [1] [µg/mL]	Structure (SMILES)	SI [1]	IC50 [2] [µg/mL]
< 0.03	CCCCNC(=O)c1cn(C2OC(COP(=O)(O)O)C(O)C2O)c(=O)nc1N (stereo not drawn) [CT1146-28]	> 3333	> 100
< 0.03	CC(C)NC(=O)c1cn(C2OC(COP(=O)(O)O)C(O)C2O)c(=O)nc1N (stereo not drawn) [CT1146-26]	> 3333	> 100
